11 compounds from patent US12209144B2, “Cyclic peptides as proprotein convertase subtilisin/kexin type 9 (PCSK9) inhibitors for the treatment of metabolic disorders” (Novartis AG, priority 2018, dated 2025) can be followed below.

pIC50: −log10 of the molar value. Bridge positions count the residues as written; N and C are the ends. Square brackets hold non-standard residues; d marks the D form. Peptide text beside a SMILES is read from it. ξ: configuration not given here. Phe(3,4-Cl2) = N[C@@H](Cc1ccc(Cl)c(Cl)c1)C(=O)O; Bip = N[C@@H](Cc1ccc(-c2ccccc2)cc1)C(=O)O; Phe(4-Cl) = N[C@@H](Cc1ccc(Cl)cc1)C(=O)O; hSer = N[C@@H](CCO)C(=O)O; NMeA = CN[C@@H](C)C(=O)O; ξD = NC(CC(=O)O)C(=O)O

The first assay deals with human PCSK9 (Homo sapiens, UniProt Q8NBP7). The assay can be described thus: PCSK9 ligand binding assay (TR-FRET): interference with binding of human PCSK9 to human LDLR. The following applies: PCSK9 FRET assay, efficacy (Amax); 0% = DMSO, 100% = 1 uM unlabeled human PCSK9. As to the method: The activity of cyclic polypeptides according to the disclosure as PCSK9 can be assessed using a time resolved fluorescence resonance energy transfer (TR-FRET) assay. This time resolved fluorescence resonance energy transfer (TR-FRET) assay measures the ability of a cyclic polypeptides of the disclosure to interfere with the binding of human PCSK9 to human LDLR, providing measures of both potency (IC50) and efficacy (Amax).
Sequence of human PCSK9 (Q8NBP7 153-692): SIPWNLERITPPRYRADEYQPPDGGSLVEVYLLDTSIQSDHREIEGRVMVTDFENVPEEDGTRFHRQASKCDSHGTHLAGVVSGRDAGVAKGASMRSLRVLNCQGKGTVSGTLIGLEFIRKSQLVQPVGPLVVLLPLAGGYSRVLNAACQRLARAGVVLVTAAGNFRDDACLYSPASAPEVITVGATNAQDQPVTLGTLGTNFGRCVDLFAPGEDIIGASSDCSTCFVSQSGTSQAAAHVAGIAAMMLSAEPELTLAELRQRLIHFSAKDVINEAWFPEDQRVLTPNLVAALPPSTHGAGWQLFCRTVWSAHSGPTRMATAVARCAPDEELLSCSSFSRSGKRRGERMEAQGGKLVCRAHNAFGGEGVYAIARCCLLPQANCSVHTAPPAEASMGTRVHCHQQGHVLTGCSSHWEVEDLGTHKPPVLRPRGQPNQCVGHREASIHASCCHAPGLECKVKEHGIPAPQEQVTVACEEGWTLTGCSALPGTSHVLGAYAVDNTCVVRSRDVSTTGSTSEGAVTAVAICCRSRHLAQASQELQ
Sequence of human PCSK9 (Q8NBP7 31-152 partner limits assumed): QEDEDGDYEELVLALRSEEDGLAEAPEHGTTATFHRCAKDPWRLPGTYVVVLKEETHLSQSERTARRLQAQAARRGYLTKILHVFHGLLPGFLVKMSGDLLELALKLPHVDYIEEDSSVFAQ
Solutions of varying concentrations are prepared by diluting a cyclic polypeptide of the disclosure in dimethylsulfoxide (DMSO) and the resulting solutions are pipetted into a plate. DMSO is used as a negative control. An intermediate plate is prepared in by transferring a known amount of each polypeptide solution and of the control from the compound plate into a corresponding well containing assay buffer and mixing thoroughly. A third plate is then prepared to be used for the assay by adding Human PCSK9 Alexa Fluor 647, followed by a known amount of each solution from the intermediate plate. Unlabeled human PCSK9 in assay buffer containing DMSO is used as a positive control for the assay. Following incubation, Human LDLR extracellular domain-Europium Kryptate is added to each well of the assay plate and the resulting mixture is incubated for an additional period of time. The TR-FRET signal is measured and the FRET ratio (FRET/Europium) is used to calculate the IC50 and Amax of the cyclic polypeptides.
The PCSK9 binding of the cyclic polypeptides of the disclosure were measured using a time resolved fluorescence resonance energy transfer (TR-FRET) assay. This time resolved fluorescence resonance energy transfer (TR-FRET) assay measures the ability of a cyclic polypeptide of the disclosure to interfere with the binding of human PCSK9 to human LDLR, providing measures of both potency (IC50) and efficacy (Amax).
• Human PCSK9 • Human PCSK9 Alexa Fluor 647 • Human LDLR extracellular domain-Europium Kryptate • Proxi plate-low volume assay plate (PerkinElmer #6008280) • Greiner V-bottom (Greiner BioOne #781280) • Assay Buffer • 20 mM HEPES, pH 7.5 • 150 mM NaCl • 1 mM CaCl2 • 0.01% v/v Tween20 • 0.01% w/v BSA
A master compound plate was prepared in a Greiner V bottom plate by diluting cyclic polypeptides of the disclosure in dimethylsulfoxide to the correct concentration for the desired top concentration based on the desired final concentration: for a 30 uM final concentration the master plate concentration is 1.5 mM (68 uL DMSO+12 uL 10 mM of a cyclic polypeptide of the disclosure), for a 10 uM final concentration the master plate concentration is 0.5 mM (76 uL DMSO+4 uL 10 mM of a cyclic polypeptide of the disclosure), for a 3 uM final concentration the master plate concentration is 150 uM (69 uL DMSO+1 uL 10 mM a cyclic peptide of the disclosure). These solutions were pipetted into columns 1 and 11 of the compound plate. Threefold serial dilutions were generated in columns 2-10 and 12-20 of the compound plate by transferring 10 uL into 20 μL of DMSO. Columns 21 and 22 of the compound plate were negative controls containing DMSO alone.
An intermediate plate was generated in a Greiner V bottom plate by transferring 8 uL from each well of the master plate into a corresponding well containing 92 μL of assay buffer and mixing thoroughly.
A Proxi plate-low volume assay plate was used for the assay. To all wells of the plate was added 10 μL of 16 nM Human PCSK9 Alexa Fluor 647, followed by 5 uL from the intermediate plate. […] Following a 30 minute incubation, 5 μL of 4 nM Human LDLR extracellular domain-Europium Kryptate was added and the mixture was incubated for an additional 2 hours.
The TR-FRET signal was measured on an EnVision or PheraStar instrument with a […] delay, 330 nm excitation and 665 nm emission (FRET), and 330 nm excitation and 615 nm (Europium). The FRET ratio (FRET/Europium) was used for calculations. […]
As for `CC(C)[C@@H]1NC(=O)[C@H](Cc2ccccc2)NC(=O)CSC[C@@H](C(=O)NCC(N)=O)NC(=O)[C@@H]2CCCN2C(=O)[C@H](C)NC(=O)[C@H](CCCCN)NC(=O)[C@H](C)N(C)C(=O)[C@H](Cc2ccc(-c3ccccc3)cc2)NC(=O)[C@H](C)N(C)C(=O)[C@H](Cc2ccccc2)NC(=O)[C@H]([C@@H](C)O)NC(=O)[C@H]([C@@H](C)O)NC(=O)[C@H](CC(N)=O)NC1=O` [Example 1-23, Ac*-F-V-N-T-T-F-(N-Me)A-B-(N-Me)A-K-A-P-C*-G-NH2] ({CH2CO}-FVNTTF[NMeA][Bip][NMeA]KAPCG-NH2; thioether N-13), the Maximum % inhibition is on record as 36%.
The same measure, in the same setting: in the case of `CC(C)[C@@H]1NC(=O)[C@H](Cc2ccccc2)NC(=O)CSC[C@@H](C(=O)NCC(N)=O)NC(=O)[C@@H]2CCCN2C(=O)[C@H](C)NC(=O)[C@H](CCC(=O)O)NC(=O)[C@H](C)N(C)C(=O)[C@H](Cc2ccc(-c3ccccc3)cc2)NC(=O)[C@H](C)N(C)C(=O)[C@H](Cc2ccccc2)NC(=O)[C@H]([C@@H](C)O)NC(=O)[C@H]([C@@H](C)O)NC(=O)[C@H](CO)NC1=O` [Example 1-24, Ac*-F-V-S-T-T-F-(N-Me)A-B-(N-Me)A-E-A-P-C*-G-NH2] ({CH2CO}-FVSTTF[NMeA][Bip][NMeA]EAPCG-NH2; thioether N-13) it was 70%; in that of `CC(C)[C@@H]1NC(=O)[C@H](Cc2ccccc2)NC(=O)CSC[C@@H](C(=O)NCC(N)=O)NC(=O)[C@@H]2CCCN2C(=O)[C@H](CO)NC(=O)[C@H](CCC(=O)O)NC(=O)[C@H](C)N(C)C(=O)[C@H](Cc2ccc(-c3ccccc3)cc2)NC(=O)[C@H](C)N(C)C(=O)[C@H](Cc2ccc(-c3ccccc3)cc2)NC(=O)[C@H]([C@@H](C)O)NC(=O)[C@H]([C@@H](C)O)NC(=O)[C@H](CO)NC1=O` [Example 1-25, Ac*-F-V-S-T-T-B-(N-Me)A-B-(N-Me)A-E-S-P-C*-G-NH2] ({CH2CO}-FVSTT[Bip][NMeA][Bip][NMeA]ESPCG-NH2; thioether N-13), 68%.
`CC(C)[C@@H]1NC(=O)[C@H](Cc2ccccc2)NC(=O)CSC[C@@H](C(=O)NCC(N)=O)NC(=O)[C@@H]2CCCN2C(=O)[C@H](CO)NC(=O)[C@H](CCC(=O)O)NC(=O)[C@H](C)N(C)C(=O)[C@H](Cc2ccc(Cl)c(Cl)c2)NC(=O)[C@H](C)N(C)C(=O)[C@H](Cc2ccc(-c3ccccc3)cc2)NC(=O)[C@H]([C@@H](C)O)NC(=O)[C@H]([C@@H](C)O)NC(=O)[C@H](CC(=O)O)NC1=O` [Example 1-26, Ac*-F-V-D-T-T-B-(N-Me)A-(3,4-diCl)F-(N-Me)A-E-S-P-C*-G-NH2] ({CH2CO}-FVDTT[Bip][NMeA][Phe(3,4-Cl2)][NMeA]ESPCG-NH2; thioether N-13) displayed a Maximum % inhibition of 84%.
Still for that read-out and setting: the same measure for `C[C@@H]1NC(=O)[C@H](C)N(C)C(=O)[C@H](Cc2ccc(-c3ccccc3)cc2)NC(=O)[C@H](C)N(C)C(=O)[C@H](Cc2ccccc2)NC(=O)[C@H]([C@@H](C)O)NC(=O)[C@H]([C@@H](C)O)NC(=O)[C@H](CC(N)=O)NC(=O)[C@H](CCC(=O)O)NC(=O)[C@H](Cc2ccccc2)NC(=O)CSC[C@@H](C(=O)NCC(N)=O)NC(=O)[C@@H]2CCCN2C(=O)[C@H](CO)NC1=O` [Example 1-27, Ac*-F-E-N-T-T-F-(N-Me)A-B-(N-Me)A-A-S-P-C*-G-NH2] ({CH2CO}-FENTTF[NMeA][Bip][NMeA]ASPCG-NH2; thioether N-13): 55%; for `CC(C)[C@@H]1NC(=O)[C@H](Cc2ccccc2)NC(=O)CSC[C@@H](C(N)=O)NC(=O)[C@@H]2CCCN2C(=O)[C@H](C)NC(=O)[C@@H]2CCCN2C(=O)[C@H](C)N(C)C(=O)[C@H](Cc2ccc(Cl)cc2)NC(=O)[C@H](C)N(C)C(=O)[C@H](Cc2ccccc2)NC(=O)[C@H]([C@@H](C)O)NC(=O)[C@H]([C@@H](C)O)NC(=O)[C@@H]2CCCN2C1=O` [Example 2-1, (6S,8aS,14S,17S,20S,23S,26S,29S,31aS,37S,40S,46R,48aS)-23,40-dibenzyl-17-(4-chlorobenzyl)-26,29-bis((R)-1-hydroxyethyl)-37-isopropyl-6,14,15,20,21-pentamethyl-5,8,13,16,19,22,25,28,31,36,39,42,48-tridecaoxohexatetracontahydro-13H-tripyrrolo[1,2-e1:1′,2′-j:1″,2″-k1][1]thia[4,7,10,13,16,19,22,25,28,31,34,37,40]tridecaazacyclodo-tetracontine-46-carboxamide] ({CH2CO}-FVPTTF[NMeA][Phe(4-Cl)][NMeA]PAPC-NH2; thioether N-13): 50%.
In turn, `CC(C)[C@@H]1NC(=O)[C@H](Cc2ccccc2)NC(=O)CSC[C@@H](C(N)=O)NC(=O)[C@@H]2CCCN2C(=O)[C@H](C)NC(=O)C(CC(=O)O)NC(=O)[C@H](C)N(C)C(=O)[C@H](Cc2ccc(Cl)cc2)NC(=O)[C@H](C)N(C)C(=O)[C@H](Cc2ccccc2)NC(=O)[C@H]([C@@H](C)O)NC(=O)[C@H]([C@@H](C)O)NC(=O)[C@@H]2CCCN2C1=O` (stereo partly drawn) [Example 2-2, Ac*-F-V-P-T-T-F-(N-Me)A-(p-Cl)F-(N-Me)A-D-A-P-C*-NH2] ({CH2CO}-FVPTTF[NMeA][Phe(4-Cl)][NMeA][ξD]APC-NH2; thioether N-13) gave a Maximum % inhibition of 72%.
`CC(C)[C@@H]1NC(=O)[C@H](Cc2ccccc2)NC(=O)CSC[C@@H](C(N)=O)NC(=O)[C@@H]2CCCN2C(=O)[C@H](C)NC(=O)C(CC(=O)O)NC(=O)[C@H](C)N(C)C(=O)[C@H](Cc2ccc(Cl)cc2)NC(=O)[C@H](C)N(C)C(=O)[C@H](Cc2ccccc2)NC(=O)[C@H]([C@@H](C)O)NC(=O)[C@H]([C@@H](C)O)NC(=O)[C@H](CCO)NC1=O` (stereo partly drawn) [Example 2-3, Ac*-F-V-HomoSer-T-T-F-(N-Me)A-(p-Cl)F-(N-Me)A-D-A-P-C*-NH2] ({CH2CO}-FV[hSer]TTF[NMeA][Phe(4-Cl)][NMeA][ξD]APC-NH2; thioether N-13): the Maximum % inhibition was 75%.
The compound `CC(C)[C@@H]1NC(=O)[C@H](Cc2ccccc2)NC(=O)CSC[C@@H](C(N)=O)NC(=O)[C@@H]2CCCN2C(=O)[C@H](CCCNC(=N)N)NC(=O)[C@H](CC(=O)O)NC(=O)[C@H](C)N(C)C(=O)[C@H](Cc2ccc(-c3ccccc3)cc2)NC(=O)[C@H](C)N(C)C(=O)[C@H](Cc2ccc(-c3ccccc3)cc2)NC(=O)[C@H]([C@@H](C)O)NC(=O)[C@H]([C@@H](C)O)NC(=O)[C@H](CO)NC1=O` [Example 2-4, Ac*-F-V-S-T-T-B-(N-Me)A-B-(N-Me)A-D-R-P-C*-NH2] ({CH2CO}-FVSTT[Bip][NMeA][Bip][NMeA]DRPC-NH2; thioether N-13) registered a Maximum % inhibition of 28%.
Same read-out and setting: in the case of `CC(C)[C@@H]1NC(=O)[C@H](Cc2ccccc2)NC(=O)CSC[C@@H](C(N)=O)NC(=O)[C@@H]2CCCN2C(=O)[C@H](C)NC(=O)[C@H](CC(N)=O)NC(=O)[C@H](C)N(C)C(=O)[C@H](Cc2ccc(Cl)cc2)NC(=O)[C@H](C)N(C)C(=O)[C@H](Cc2ccccc2)NC(=O)[C@H]([C@@H](C)O)NC(=O)[C@H]([C@@H](C)O)NC(=O)[C@H](C)NC1=O` [Example 2-5, Ac*-F-V-A-T-T-F-(N-Me)A-(p-Cl)F-(N-Me)A-N-A-P-C*-NH2] ({CH2CO}-FVATTF[NMeA][Phe(4-Cl)][NMeA]NAPC-NH2; thioether N-13) it was 46%; in that of `CC(C)[C@@H]1NC(=O)[C@H]([C@@H](C)O)NC(=O)[C@H]([C@@H](C)O)NC(=O)[C@@H]2CCCN2C(=O)[C@H](C(C)C)NC(=O)[C@H](Cc2ccccc2)NC(=O)CSC[C@@H](C(N)=O)NC(=O)[C@@H]2CCCN2C(=O)[C@H](C)NC(=O)[C@H](CCC(=O)O)NC(=O)[C@H](C)N(C)C(=O)[C@H](Cc2ccc(Cl)cc2)NC(=O)[C@H](C)N(C)C1=O` [Example 2-6, Ac*-F-V-P-T-T-V-(N-Me)A-(p-Cl)F-(N-Me)A-E-A-P-C*-NH2] ({CH2CO}-FVPTTV[NMeA][Phe(4-Cl)][NMeA]EAPC-NH2; thioether N-13), 83%.

The same assay, now with this note: TR-FRET; Human PCSK9 Alexa Fluor 647 and Human LDLR extracellular domain-Europium Kryptate.
In the case of `C[C@@H]1NC(=O)[C@H](C)N(C)C(=O)[C@H](Cc2ccc(-c3ccccc3)cc2)NC(=O)[C@H](C)N(C)C(=O)[C@H](Cc2ccccc2)NC(=O)[C@H]([C@@H](C)O)NC(=O)[C@H]([C@@H](C)O)NC(=O)[C@H](CC(N)=O)NC(=O)[C@H](CCC(=O)O)NC(=O)[C@H](Cc2ccccc2)NC(=O)CSC[C@@H](C(=O)NCC(N)=O)NC(=O)[C@@H]2CCCN2C(=O)[C@H](CO)NC1=O` [Example 1-27, Ac*-F-E-N-T-T-F-(N-Me)A-B-(N-Me)A-A-S-P-C*-G-NH2] ({CH2CO}-FENTTF[NMeA][Bip][NMeA]ASPCG-NH2; thioether N-13), the pIC50 (usually −log10 of the IC50, conventionally taken in molar units) was 6.39.
